{"source": "patent US8318768B2", "about": "“Bronchodilating alpha, beta-unsaturated isoquinoline amides” (Respiratorius AB, priority 2007, dated 2012)", "assay_type_in_all_cases": "cell-based", "key": {"[1]": {"system": "LTB4", "assay": "Human PBMC in vitro model, LTB4 production (ELISA)", "conditions": "compound 10 μM or dexamethasone 1 μM, 24 h supernatant", "description": "(§1) Cryopreserved PBMC's (SeraCare, # 72001) were thawed, washed with culture media (RPMI-1640 from Invitrogen, # 61870-036+10% heat inactivated fetal bovine serum from Invitrogen, # 10082-147+100 U/ml penicillin+[…] streptomycin) and tested for viability using Trypan blue (PBMC viability=96%). Cells were then resuspended to 1×10^6 cells/ml in culture media and 0.5 ml was plated into 24 well culture plates (5×10^5 cells/well) before incubation for 30 minutes at 37° C. with 5% CO2 prior to addition of a compound of the present invention (10 μM) or dexamethasone (1 μM). One hour thereafter, LPS (0.1 μg/ml, Salmonella abortus equi, Sigma, # L1887) was added and the cells were incubated for another 24 h before collection of the cell culture supernatants, which were assayed for the presence of MCP-1 and LTB4.\nLTB4 levels were quantified by ELISA following the manufacturer's instructions. Absorbance readings were detected using a ThermoMax microplate reader (Molecular Devices). Standard curves were generated using a 4-parameter logistic curve fitting equation (SoftMax Pro 4.7.1; Molecular Devices). Each sample reading was interpolated from the appropriate standard curve. Duplicate interpolated sample values were averaged and standard deviations were calculated. Calculated concentrations were multiplied by the appropriate dilution factor.\n(§2) The inhibitory effect of compounds of the present invention, dexamethasone, and vehicle on production of MCP-1 and LTB4 in the PBMC model as described herein above, with (+LPS) or without (−LPS) LPS-induced mediator production, is tabulated below."}, "[2]": {"system": "MCP-1", "assay": "Human PBMC in vitro model, MCP-1 production (Luminex-based assay)", "conditions": "compound 10 μM or dexamethasone 1 μM, 24 h supernatant", "description": "as §1\nMCP-1 levels were quantified employing a Luminex-based assay according the manufacturer's instructions. Data was collected using a Luminex 100 (Luminex Corporation, Austin, Tex.). Standard curves were generated using a 5-parameter logistic curve fitting equation weighted by 1/y (StarStation V 2.0; Applied Cytometry Systems, Sacramento, Calif.). Each sample reading was interpolated from the appropriate standard curve. Calculated concentrations were multiplied by the appropriate dilution factor when necessary.\nas §2"}, "[3]": {"system": "human bronchiols", "assay": "Leukotriene D4 induced contraction of human bronchiols, in vitro model (Biological Example 1)", "conditions": "pre-treatment with compound 10 μM, Leukotriene D4 (10 nM) induced contraction, read-out: Remaining contraction (%)", "description": "(§3) The usefulness of the compounds, as defined in the preceding embodiments, in treating, pretreating, revoking, mitigating, alleviating and/or preventing a condition of the respiratory apparatus characterized by bronchoconstriction, were evaluated in a complex and relevant in vitro model. The in vitro model was in accordance with the in vitro model disclosed in US 2006-0040254 A1 and by Skogvall, S., Berglund, M., Dalence-Guzman, M. F., Svensson, K., Jonsson, P., Persson, C. G. A and Sterner, O., in Pulmonary Pharmacology and Therapeutics, vol 20:3, 2007, p. 273-280. All references disclosed herein are hereby incorporated in their entirety by reference.\n(§4) In short, lung tissue was obtained from patients undergoing lobectomia or pulmectomia due to lung carcinoma. From the bronchus of this tissue were rectangular oblong preparations obtained. The contraction induced by inflammatory mediators, such as Leukotriene D4, histamine, prostaglandin D2 or acetylcholine, in the presence and absence of the compound to be evaluated, were compared.\nThe remaining contraction, after pre-treatment with various compound examples at a concentration of 10 μM, of human bronchiols after Leukotriene D4 (10 nM) induced contraction according to the in vitro method described herein above are tabulated below."}, "[4]": {"system": "human bronchiols", "assay": "Contraction of human bronchiols induced by acetylcholine, carbachol, histamine, methacholine or a mixture (Biological Example 2)", "conditions": "compound 10 μM", "description": "as §3, §4\n(§5) The remaining contraction, after pre-treatment with various compound examples at a concentration of 10 μM, of human bronchiols or rat bronhi after the induction of contraction by treatment with the contractile agents acetylcholine (100 uM), carbachol (10 uM), histamine (100 uM), methacholine (100 uM) or a mixture of acetylcholine (100 uM), leukotriene D4 (LTD4) (0.01 uM) and histamine (100 uM), according to the in vitro method described herein above, are tabulated below: […]"}, "[5]": {"system": "rat bronhi", "assay": "Contraction of rat bronchi induced by acetylcholine, carbachol or methacholine (Biological Example 2)", "conditions": "compound 10 μM", "description": "as §3, §4, §5"}, "[6]": {"conditions": "Mixture of Acetylcholine (100 uM), LTD4 (0.01 uM) and histamine (100 uM)"}}, "data": [{"smiles": "C[C@@H]1C[C@H]2[C@@H]3CCC4=CC(=O)C=C[C@]4(C)[C@@]3(F)[C@@H](O)C[C@]2(C)[C@@]1(O)C(=O)CO", "note": "[Dexamethasone, reference compound]", "values": [{"measurement": "Mean LTB-4", "setting": "[1]; with LPS 0.1 μg/ml (+LPS)", "result": 12.6, "unit": "pg/mL"}, {"measurement": "Mean LTB-4", "setting": "[1]; without LPS (−LPS)", "result": 2.7, "unit": "pg/mL"}, {"measurement": "Mean MCP-1", "setting": "[2]; with LPS 0.1 μg/ml (+LPS)", "result": 1425.6, "unit": "pg/mL"}, {"measurement": "Mean MCP-1", "setting": "[2]; without LPS (−LPS)", "result": 0, "unit": "pg/mL"}]}, {"smiles": "O=C(/C=C/c1ccccc1)N1CCc2c(Cl)c(O)c(O)c(Cl)c2C1", "note": "[Example 1, (E)-1-(5,8-dichloro-6,7-dihydroxy-3,4-dihydroisoquinolin-2(1H)-yl)-3-phenylprop-2-en-1-one]", "values": [{"measurement": "activity at 10 µM", "setting": "[3]", "result": 41, "unit": "%"}]}, {"smiles": "O=C(/C=C\\c1ccccc1O)N1CCc2c(Cl)c(O)c(O)c(Cl)c2C1", "note": "[Example 7, (Z)-1-(5,8-dichloro-6,7-dihyroxy-3,4-dihydroisoquinolin-2(1H)-yl)-3-(2-hydroxyphenyl)prop-2-en-1-one]", "values": [{"measurement": "activity at 10 µM", "setting": "[3]", "result": 71, "unit": "%"}]}, {"smiles": "C/C(=C\\C(=O)N1CCc2c(Cl)c(O)c(O)c(Cl)c2C1)c1cnc2ccccc2c1", "note": "[Example 5, (E)-1-(5,8-dichloro-6,7-dihydroxy-3,4-dihydroisoquinolin-2(1H)-yl)-3-(quinolin-3-yl)but-2-en-1-one]", "values": [{"measurement": "activity at 10 µM", "setting": "[3]", "result": 31, "unit": "%"}]}, {"smiles": "O=C(/C=C/c1ccc(C(F)(F)F)nc1)N1CCc2c(Cl)c(O)c(O)c(Cl)c2C1", "note": "[Example 12, (E)-1-(5,8-dichloro-6,7-dihydroxy-3,4-dihydroisoquinolin-2(1H)-yl)-3-(6-(trifluoromethyl)pyridin-3-yl)prop-2-en-1-one]", "values": [{"measurement": "Mean LTB-4", "setting": "[1]; with LPS 0.1 μg/ml (+LPS)", "result": 9.9, "unit": "pg/mL"}, {"measurement": "Mean LTB-4", "setting": "[1]; without LPS (−LPS)", "result": 3.9, "unit": "pg/mL"}, {"measurement": "REMAINING CONTRACTION (%)", "setting": "[4]; Acetylcholine (100 uM)", "result": 4, "unit": "%"}, {"measurement": "REMAINING CONTRACTION (%)", "setting": "[4]; Carbachol (10 uM)", "result": 10, "unit": "%"}, {"measurement": "REMAINING CONTRACTION (%)", "setting": "[4]; Histamine (100 uM)", "result": 1, "unit": "%"}, {"measurement": "REMAINING CONTRACTION (%)", "setting": "[4]; Methacholine (100 uM)", "result": 7, "unit": "%"}, {"measurement": "REMAINING CONTRACTION (%)", "setting": "[4]; [6]", "result": 12, "unit": "%"}, {"measurement": "activity at 10 µM", "setting": "[3]", "result": 6, "unit": "%"}, {"measurement": "REMAINING CONTRACTION (%)", "setting": "[5]; Acetylcholine (100 uM)", "result": 40, "unit": "%"}, {"measurement": "REMAINING CONTRACTION (%)", "setting": "[5]; Carbachol (10 uM)", "result": 27, "unit": "%"}, {"measurement": "REMAINING CONTRACTION (%)", "setting": "[5]; Methacholine (100 uM)", "result": 49, "unit": "%"}, {"measurement": "Mean MCP-1", "setting": "[2]; with LPS 0.1 μg/ml (+LPS)", "result": 303.1, "unit": "pg/mL"}, {"measurement": "Mean MCP-1", "setting": "[2]; without LPS (−LPS)", "result": 229.7, "unit": "pg/mL"}]}, {"smiles": "Cc1c(O)c(O)c(C)c2c1CCN(C(=O)/C=C/c1ccc(C(F)(F)F)nc1)C2", "note": "[Example 9, (E)-6,7-dihydroxy-5,8-dimethyl-1,2,3,4-tetrahydroisoquinoline 3-(6-(trifluoromethyl)pyridin-3-yl)acrylamide]", "values": [{"measurement": "activity at 10 µM", "setting": "[3]", "result": 75, "unit": "%"}]}, {"smiles": "C/C(=C\\C(=O)N1CCc2c(Cl)c(O)c(O)c(Cl)c2C1)c1ccc(C(F)(F)F)nc1", "note": "[Example 13]", "values": [{"measurement": "Mean LTB-4", "setting": "[1]; with LPS 0.1 μg/ml (+LPS)", "result": 9.8, "unit": "pg/mL"}, {"measurement": "Mean LTB-4", "setting": "[1]; without LPS (−LPS)", "result": 4.3, "unit": "pg/mL"}, {"measurement": "REMAINING CONTRACTION (%)", "setting": "[4]; Acetylcholine (100 uM)", "result": 7, "unit": "%"}, {"measurement": "REMAINING CONTRACTION (%)", "setting": "[4]; Histamine (100 uM)", "result": 3, "unit": "%"}, {"measurement": "REMAINING CONTRACTION (%)", "setting": "[4]; [6]", "result": 18, "unit": "%"}, {"measurement": "activity at 10 µM", "setting": "[3]", "result": 7, "unit": "%"}, {"measurement": "REMAINING CONTRACTION (%)", "setting": "[5]; Acetylcholine (100 uM)", "result": 52, "unit": "%"}, {"measurement": "Mean MCP-1", "setting": "[2]; with LPS 0.1 μg/ml (+LPS)", "result": 256.7, "unit": "pg/mL"}, {"measurement": "Mean MCP-1", "setting": "[2]; without LPS (−LPS)", "result": 217.1, "unit": "pg/mL"}]}, {"smiles": "Cc1nc(C(F)(F)F)ccc1/C=C/C(=O)N1CCc2c(Cl)c(O)c(O)c(Cl)c2C1", "note": "[Example 11, (E)-1-(5,8-dichloro-6,7-dihydroxy-3,4-dihydroisoquinolin-2(1H)-yl)-3-(2-methyl-6-(trifluoromethyl)pyridin-3-yl)prop-2-en-1-one]", "values": [{"measurement": "REMAINING CONTRACTION (%)", "setting": "[4]; [6]", "result": 25, "unit": "%"}, {"measurement": "activity at 10 µM", "setting": "[3]", "result": 9, "unit": "%"}]}, {"smiles": "O=C(/C=C/c1cccnc1)N1CCc2c(Cl)c(O)c(O)c(Cl)c2C1", "note": "[Example 2, (E)-1-(5,8-dichloro-6,7-dihydroxy-3,4-dihydroisoquinolin-2(1H)-yl)-3-(pyridin-3-yl)prop-2-en-1-one]", "values": [{"measurement": "activity at 10 µM", "setting": "[3]", "result": 44, "unit": "%"}]}, {"smiles": "C/C(=C\\C(=O)N1CCc2c(Cl)c(O)c(O)c(Cl)c2C1)c1ccc(F)cn1", "note": "[Example 8, (E)-1-(5,8-dichloro-6,7-dihydroxy-3,4-dihydroisoquinolin-2(1H)-yl)-3-(5-fluoropyridin-2-yl)but-2-en-1-one]", "values": [{"measurement": "activity at 10 µM", "setting": "[3]", "result": 76, "unit": "%"}]}, {"smiles": "O=C(/C=C/c1ccc(F)cn1)N1CCc2c(Cl)c(O)c(O)c(Cl)c2C1", "note": "[Example 3, (E)-1-(5,8-dichloro-6,7-dihydroxy-3,4-dihydroisoquinolin-2-(1H)-yl)-3-(5-fluoropyridin-2-yl)prop-2-en-1-one]", "values": [{"measurement": "REMAINING CONTRACTION (%)", "setting": "[4]; [6]", "result": 43, "unit": "%"}, {"measurement": "activity at 10 µM", "setting": "[3]", "result": 24, "unit": "%"}]}]}
